Data set [1] concerns MCF7 cells. The data set is described as follows: Cellular proliferation/cytotoxicity assay (Alamar Blue), MCF7. Particulars: Homo sapiens, MCF7, 48 h, read-out: Anti-proliferative/cytotoxic activity: IC50 MCF7.
Description: (§1) The anti-proliferative activity of the compounds as described herein, is evaluated using MCF7 and MDA-MB-468 (ATCC HTB-22 and HTB-132) cell lines and the Alamar Blue (Resazurin) cell viability assay (O'Brien et al. Eur J Biochem 267, 5421-5426, 2000). Resazurin is reduced to the fluorescent resorufin by cellular dehydrogenase activity, correlating with viable, proliferating cells. Test compounds are dissolved as 10 mM solutions in DMSO and subsequently diluted. MCF7 or MDA-MB-434 cells were seeded into 96 well flat bottom plates at a density of 10000 cells/well (MCF7) or 5000 cells/well (MDA-MB-468) in a volume of 200 μl/well. 24 hours after seeding, 1 μl each of the compound dilutions are added into each well of the 96 well plates. Each compound dilution is tested as at least as duplicates. Wells containing untreated control cells were filled with 200 μl DMEM containing 0.5% v:v DMSO. The cells are then incubated with the substances for 48 hours at 37° C. in a humidified atmosphere containing 5% carbon dioxide. To determine cell viability, 20 μl of a Resazurin solution (Sigma; 90 mg/l) are added. After 4 hours incubation at 37° C. the fluorescence is measured at an extinction of 544 nm and an emission of 590 nm (Wallac Victor2; Perkin Elmer, USA). For the calculation of the cell viability the emission value from untreated cells is set as 100% viability and the emission rates of treated cells are set in relation to the values of untreated cells. Viabilities are expressed as % values. The corresponding IC50 values of the compounds for cytotoxic activity are determined from the concentration-effect curves by means of non-linear regression. The analysis of the data is performed using a biostatistical program (GraphPad Prism, USA).
The target in a further data set is T1, GST-ΔPH-Akt1 (Homo sapiens, UniProt P31749).
T1 construct: named GST-deltaPH-Akt1; 107-480aa; cloned in the pAcGl vector; GST (N); made in house; host or cells: SF9 insect cells (baculovirus vector pAcG1), co-expressed with PDK1
Nature of the data set: Biochemical ΔPH Akt1 assay (flashplate, 33P incorporation into histone 2B). Particulars: 100 nM ATP, histone 2B substrate; read-out: ΔPHAkt1 inhibition: IC50. In short, it runs like this: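 The enzyme was GST-fused human Akt1 lacking the PH domain (aa 107–480), co-expressed with PDK1 in Sf9 cells, at 100 ng/well, with 100 ng/well histone 2B substrate and 100 nM ATP including 33P-ATP. 33P incorporation was counted on scintillant-coated flashplates.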

Data set [2] has as its system MDA-MB-468 cells. Nature of the data set: Cellular proliferation/cytotoxicity assay (Alamar Blue), MDA-MB-468. Particulars: Homo sapiens, MDA-MB-468, 48 h, read-out: Anti-proliferative/cytotoxic activity: IC50 MDA468.
Description: as §1
Data set [3] deals with T2, full-length Akt1 (inactive) (Homo sapiens, UniProt P31749).
T2 construct: recombinant full-length human Akt1 a containing N-terminal His6 tag; His6 (N); purchased Upstate, UK #14-279; host or cells: baculovirus infected Sf21 insect cells
Nature of the data set: Biochemical Akt1 assay (full-length Akt1 inactive, PDK1-dependent activation, IMAP). Conditions: PDK1 and PIP3 vesicles, 50 μM ATP; read-out: Inhibition of Akt1 activation (full-length Akt1, inactive): IC50. As to the method: The enzyme is purified using Ni2+/NTA-agarose (Upstate, UK; #14-279).
The enzyme is purified using Ni2+/NTA-agarose.
PDK1-dependent activation and subsequent enzymatic activity of Akt1: Activity of purified human Akt1 is routinely measured in an assay in which the enzyme is first activated by PDK1 in the presence of phosphatidylinositol-3,4,5-triphosphate (PIP3). Once activated, Akt1-dependent phosphorylation of a fluorescence labelled peptide substrate is measured by fluorescence polarisation using the IMAP technology (Molecular Devices).
The phospholipids are prepared as follows: 5 mg DOPC/DOPS are solved in 200 μl 10 mM Tris (pH 7.4) and 300 μg PIP3 are resuspended in 950 μl 10 mM Tris (pH 7.4) by pipetting. 950 μl solved PIP3 are mixed with 50 μl solved DOPC/DOPS and incubated for 2 h at a temperature below 20° C. Then the mixture is subjected to sonification for 30 min. at max. power until a translucent phopholipid vesicle preparation is obtained. Aliquots of the vesicle suspension are frozen at -80° C. until needed, likewise the solved DOPC/DOPS.
Assays are performed in 384-well plates. Incubations are carried out for 60 min. at room temperature. The reaction buffer mixture contained in a final volume of 25 μl: 10 mM Tris pH 7,4, 10 mM MgCl2. 1 mM DTT, and 0.1 mg/ml BSA. In contrast the activation buffer contained: 50 ng/well Akt1, 20 ng/well PDK1, 1.25 μM peptide substrat, 50 μM ATP, and phospholipid vesicles (1:20). Test compounds are added from stock solutions in DMSO before activation of Akt1 by PDK1. After the incubation the beads (IMAP binding reagent; Molecular Devices; 1:167) are added and the fluorescence polarization is measured (excitation 485 nm, emission 530 nm).

The next data set has as its target T3, PKA (Homo sapiens, UniProt P17612).
T3 construct: His; purchased PanVera, USA #R3791; host or cells: E. coli
Nature of the data set: Biochemical PKA assay (flashplate). Particulars: 100 nM ATP; read-out: PKA inhibition: −log IC50 (converted). As to the method:
For the biochemical PKA assay the catalytic subunit of PKA is expressed in E. coli as a His-tagged human recombinant protein and purified accordingly (PanVera, USA; #R3791).
In order to study the kinase inhibition activity of the compounds according to the invention, a flashplate-based assay has been developed for the serine/threonine kinase, PKA. The assay is run in 96 well plates by incubating 1 ng/well His-PKA (PanVera, USA; #R3791), 0.5 μM/well PKA peptide (#12-394; Upstate, USA) as substrate, 10 μl of compound of invention (test compounds were dissolved as 10 mM solutions in dimethylsulfoxide (DMSO) and subsequently diluted) and 100 nM ATP (including ^33P-ATP) in 100 μl of reaction buffer ([…], pH7,5; 3 mM MgCl2; 3 mM MnCl2; 3 μM Na-Orthovanadat; 1 mM DTT) for 80 minutes at 22° C. The reactions are stopped by adding 100 μl stopping buffer (2% H3PO4 for 5 minutes) and are washed 3 times by using washing buffer (200 μl 1×PBS). Relying on the incorporation of ^33P into the peptide substrate, the detection is based on the adhesion of the phosphorylated peptide to the surface of scintillator-coated Flash plates (Perkin Elmer, USA; #SMP-103). This phosphorylation is measured by counting the plate for 60 sec. using a plate reader (Wallac Microbeta; Perkin Elmer, USA). By using this method the IC50 of the PKA inhibition is determined.

Data set [4] has as its target T4, full-length Akt1 (active) (Homo sapiens, UniProt P31749).
T4 construct: recombinant full-length human Akt1, containing N-terminal His6 tag; His6 (N); GST (N); purchased Upstate, UK #14-276; host or cells: baculovirus infected Sf21 insect cells
Nature of the data set: Biochemical Akt1 assay (full-length Akt1 active, flashplate, Crosstide). Particulars: 100 nM ATP, Crosstide substrate; read-out: Akt1 inhibition (full-length Akt1, active): IC50. The text has this:
For the biochemical Akt1 assay recombinant full-length human Akt1, containing N-terminal His6 tag is cloned and expressed in baculovirus infected Sf21 insect cells. Akt1 is activated with GST-MAPKAP-K2 and PDK1, and repurified on Ni2+/NTA-agrose and glutathioneagarose (Upstate, UK; #14-276).
In order to study the inhibition of Akt1 (full-length version) according to the invention, a flashplate-based assay has been developed.
The full-length Akt1 assay is a biochemical assay using Akt1 N-terminally fused to GST and co-expressed with PDKI in insect cells. The Akt1 assay is run in 96 well plates by incubating 500 ng/well GST-Akt1, 1 μM Crosstide (N-terminally biotinylated synthetic peptide (KGSGSGRPRTSSFAEG) Upstate, #12-385) as substrate, 10 μl of test compound (test compounds were dissolved as 10 mM solutions in dimethylsulfoxide (DMSO) and subsequently diluted) and 100 nM ATP (including ^33P-ATP) in 100 μl of reaction buffer (50 mM HEPES, pH7,5; 3 mM MgCl2; 3 mM MnCl2; 3 μM Na-Orthovanadat; 1 mM DTT; 1 μg/ml PEG8000) for 60 minutes at 30° C. in 96 well microtiter plates. The reactions are terminated by adding 100 μl stopping buffer (5M NaCl, 35 mM EDTA pH 8.0) for 5 minutes. 190μl of the reaction mixture are transferred into streptavidin-coated Flashplates (Perkin Elmer, #SMP-103) and incubated for further 30 minutes at room temperature. The plates are washed 3 times by using washing buffer (0.9% NaCl). Relying on the incorporation of ^33P into the peptide substrate crosstide, the detection is based on the specific binding of the biotinylated peptide to the streptavidin-coated surface of scintillator-coated flash plates (NEN, USA; #SMP-103). This phosphorylation is measured by counting the plate for 60 sec. using a plate reader (Wallac Microbeta; Perkin Elmer, USA).

Data set [5] concerns MCF7 cells.
Description: as §1
Data set [6] deals with MDA-MB-468 cells.
Description: as §1

Where two headings read alike, the source gives them in different places.

T1 sequence (P31749 107-480, stated change not applied): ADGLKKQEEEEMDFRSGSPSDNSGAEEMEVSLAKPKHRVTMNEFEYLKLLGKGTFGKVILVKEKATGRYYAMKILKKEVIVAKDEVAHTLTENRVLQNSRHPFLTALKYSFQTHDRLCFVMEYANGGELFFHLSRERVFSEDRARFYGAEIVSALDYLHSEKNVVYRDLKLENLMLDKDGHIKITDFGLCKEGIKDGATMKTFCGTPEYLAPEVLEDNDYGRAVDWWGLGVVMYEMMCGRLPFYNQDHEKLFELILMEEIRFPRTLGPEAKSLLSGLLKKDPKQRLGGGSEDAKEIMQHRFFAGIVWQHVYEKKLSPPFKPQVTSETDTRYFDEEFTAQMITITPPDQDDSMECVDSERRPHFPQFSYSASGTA
T2 sequence (P31749 whole entry): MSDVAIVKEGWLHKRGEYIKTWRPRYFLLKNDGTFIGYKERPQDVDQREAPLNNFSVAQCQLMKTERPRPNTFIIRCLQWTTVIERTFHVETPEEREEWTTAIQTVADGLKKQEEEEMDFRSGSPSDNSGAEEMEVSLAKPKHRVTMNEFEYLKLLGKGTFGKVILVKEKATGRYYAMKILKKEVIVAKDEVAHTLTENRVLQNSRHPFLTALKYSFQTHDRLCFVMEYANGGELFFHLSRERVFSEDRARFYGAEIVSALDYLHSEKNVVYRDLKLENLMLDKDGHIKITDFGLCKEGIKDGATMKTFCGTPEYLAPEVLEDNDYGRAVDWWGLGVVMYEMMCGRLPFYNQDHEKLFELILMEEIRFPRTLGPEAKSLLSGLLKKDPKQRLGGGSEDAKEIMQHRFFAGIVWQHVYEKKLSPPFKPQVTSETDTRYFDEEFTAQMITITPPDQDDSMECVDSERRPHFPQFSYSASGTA
T4 sequence (P31749 whole entry): as above

With `Cn1cc(-c2ccc(-c3cc4ccnn4c(Nc4ccc(NC(=O)c5ccc(CN)cc5)cc4)n3)cc2)cn1` [Example 61, 4-Aminomethyl-N-(4-{5-[4-(1-methyl-1H-pyrazol-4-yl)-phenyl]-pyrazolo[1,5-c]pyrimidin-7-ylamino}-phenyl)-benzamide], the IC50 is at most 16.9 µM in the data set with MCF7 cells [1]; at most 1.75 µM on GST-ΔPH-Akt1; at most 13.6 µM with MDA-MB-468 cells [2]; at most 5 µM in data set [3]; 6.31 to 100 µM on PKA; at most 4.03 µM in data set [4].

In the case of `NCc1ccc(C(=O)Nc2ccc(Nc3nc(-c4cccc5c4oc4ccccc45)cc4ccnn34)cc2)nc1` [Example 65, 5-Aminomethyl-pyridine-2-carboxylic acid [4-(5-dibenzofuran-4-yl-pyrazolo[1,5-c]pyrimidin-7-ylamino)-phenyl]-amide], the IC50 in the data set with MCF7 cells [1] was at most 16.9 µM; on GST-ΔPH-Akt1 it was at most 1.75 µM; in the data set with MDA-MB-468 cells [2], at most 13.6 µM; on PKA it was 6.31 to 100 µM.

As to `NCc1ccc(C(=O)Nc2ccc(Nc3nc(-c4ccc(-c5ccc(F)cc5)cc4)cc4ccnn34)cc2)cc1` [Example 67, 4-Aminomethyl-N-{4-[5-(4′-fluoro-biphenyl-4-yl)-pyrazolo[1,5-c]pyrimidin-7-ylamino]-phenyl}-benzamide], the IC50 with MCF7 cells [1] was at most 16.9 µM; at GST-ΔPH-Akt1 it was at most 1.75 µM; in the data set with MDA-MB-468 cells [2], at most 13.6 µM; on PKA, 6.31 to 100 µM.

On to `NCc1ccc(C(=O)Nc2ccc(Nc3nc(-c4ccc(I)cc4)cc4ccnn34)cc2)cc1` [Example 68, 4-Aminomethyl-N-{4-[5-(4-iodo-phenyl)-pyrazolo[1,5-c]pyrimidin-7-ylamino]-phenyl}-benzamide], for which the IC50 was at most 16.9 µM in the data set with MCF7 cells [1], at most 1.75 µM on GST-ΔPH-Akt1, at most 13.6 µM in the data set with MDA-MB-468 cells [2] and 6.31 to 100 µM on PKA.

In the case of `NCc1ccc(C(=O)Nc2ccc(Nc3nc(-c4ccc(-c5ccccc5F)cc4)cc4ccnn34)cc2)cc1` [Example 69, 4-Aminomethyl-N-{4-[5-(2′-fluoro-biphenyl-4-yl)-pyrazolo[1,5-c]pyrimidin-7-ylamino]-phenyl}-benzamide], the IC50 with MCF7 cells [1] is at most 16.9 µM; on GST-ΔPH-Akt1, at most 1.75 µM; in the data set on MDA-MB-468 cells [2], at most 13.6 µM; at PKA it was 6.31 to 100 µM.

`NCc1ccc(C(=O)Nc2ccc(Nc3nc(-c4ccc(-c5cccc(F)c5)cc4)cc4ccnn34)cc2)cc1` [Example 70, 4-Aminomethyl-N-{4-[5-(3′-fluoro-biphenyl-4-yl)-pyrazolo[1,5-c]pyrimidin-7-ylamino]-phenyl}-benzamide]: the IC50 was at most 16.9 µM in the data set on MCF7 cells [1], at most 1.75 µM at GST-ΔPH-Akt1, at most 13.6 µM in the data set on MDA-MB-468 cells [2] and 6.31 to 100 µM on PKA.

For the compound “Aminomethyl-N-(4-{5-[6-(2-hydroxy-ethoxy)-naphthalen-2-yl]-pyrazolo[1,5-c]pyrimidin-7-ylamino}-phenyl)-benzamide [Example 50]”, the IC50 in the data set on MCF7 cells [5] was at most 16.9 µM; in the data set with MDA-MB-468 cells [6], at most 13.6 µM.

Source of the values: patent US7745446B2, “Pyrazolo[1,5-c]pyrimidines” (Bayer Schering Pharma Aktiengesellschaft, priority 2004, dated 2010).
